Data: US6348456B1, “Method of treating chemical dependency in mammals and a composition therefor” (priority 1994, dated 2002)

Test: plasma concentration of ibogaine and its metabolite 12-hydroxy ibogamine over time after ibogaine administration to a human patient
Assay type: in vivo
Protocol: An amount of ibogaine was administered to a human patient, and the plasma concentration of both ibogaine and a metabolite thereof, 12-hydroxy ibogamine, were observed as a function of time.
FIG. 1 illustrates the result of administering a certain dosage of ibogaine to a human patient, where the plasma concentration of ibogaine is measured over time. In essence, a peak plasma concentration of about 1,100 ng/ml is observed at administration. It is also notable that at about 11 hours after ibogaine administration, plasma concentration of ibogaine diminished to less than 400 ng/ml. After about 24 hours, plasma concentration diminished to less than 200 ng/ml. Thus, ibogaine is rather quickly eliminated by the patient.
By contrast, FIG. 2 illustrates the variation of noribogaine plasma concentration with time as a metabolite from the same ibogaine administration described above. In essence, a peak plasma concentration of noribogaine of about 590 ng/ml was reached only after about 11 hours from administration. Thereafter, even at 24 hours, a plasma concentration of greater than 500 ng/ml was observed.

For `CC[C@H]1CC2C[C@H]3c4[nH]c5ccc(OC)cc5c4CCN(C2)C13` [ibogaine, reference compound], the “plasma concentration of ibogaine” value (after about 24 hours) was “less than 200 ng/ml”, the “plasma concentration of ibogaine” value (at about 11 hours after ibogaine administration) was “less than 400 ng/ml” and the “peak plasma concentration of ibogaine” value (ibogaine administered, (FIG. 1)) was “about 1,100 ng/ml”.
In the case of `CC[C@H]1C[C@H]2C[C@H]3c4[nH]c5ccc(O)cc5c4CCN(C2)[C@@H]13` [noribogaine, 12-hydroxy ibogamine], the “plasma half-life compared with ibogaine” value (after ibogaine administration) is reported as “much longer plasma half-life than ibogaine”, the “plasma concentration of noribogaine” value (at 24 hours, metabolite after ibogaine administration) is reported as “greater than 500 ng/ml” and the “time from administration to peak plasma concentration of noribogaine” value (noribogaine as metabolite after ibogaine administration) is reported as “about 11 hours”. The “peak plasma concentration of noribogaine” value (noribogaine as metabolite from the same ibogaine administration (FIG. 2)) was “about 590 ng/ml”.
